The subject of the experiment is Micrococcus flavus ATCC 10240, Sarcina lutea ATCC 9341 and Staph. epidermidis ATCC 12228. Put plainly: antibacterial activity compared with tetracycline, statement for three organisms. It counts as cell-based. Conditions: strongest activity against M. flavus ATCC 10240, Sarcina lutea ATCC 9341, Staph. epidermidis ATCC 12228.

Take `Cc1ccc(S(=O)(=O)NC2C(O)=C(C(N)=O)C(=O)C3(O)C(=O)c4c(c(C)c5cccc(O)c5c4O)CC23)cc1` (stereo not shown) [Compound 2, 4-p-toluene-sulfonamido-5a,6-anhydrotetracycline]: the “activity relative to that of tetracycline” value (from here on “activity relative to that”) is given as “considerably superior or equal to that of tetracycline”. The entry for `Cc1c2c(c(O)c3c(O)cccc13)C(=O)C1(O)C(=O)C(C(N)=O)=C(O)C(NS(=O)(=O)c3ccc(F)cc3)C1C2` (stereo not shown) [Compound 3, 4-p-fluorbenzenesulfonamido-5a,6-anhydrotetracycline] is “considerably superior or equal to that of tetracycline”. Turning to `Cc1c2c(c(O)c3c(O)cccc13)C(=O)C1(O)C(=O)C(C(N)=O)=C(O)C(NS(=O)(=O)c3ccc(Br)cc3)C1C2` (stereo not shown) [Compound 4, 4-p-bromobenzenesulfonamido-5a,6-anhydrotetracycline], the “activity relative to that” value was “considerably superior or equal to that of tetracycline”.

In the case of `CCc1ccc(S(=O)(=O)NC2C(O)=C(C(N)=O)C(=O)C3(O)C(=O)c4c(c(C)c5cccc(O)c5c4O)CC23)cc1` (stereo not shown) [Compound 6, 4-p-ethylbenzenesulfonamido-5a,6-anhydrotetracycline], the “activity relative to that” value was “considerably superior or equal to that of tetracycline”.

For the origin of these results see patent US4160783A, “4-Dedimethylamino-4-arylsulfonamido-5a,6-anhydrotetracyclines” (PLIVA Pharmaceutical and Chemical Works, priority 1976, dated 1979).
